Target: T1, human URAT1 (Homo sapiens, UniProt Q96S37)
T1 construct: Human URAT1 full length cDNA was subcloned to expression vector pcDNA3.1; expressed in transfected cells; host or cells: HEK293 cells (pcDNA3.1, geneticin-selected)
T1 sequence (Q96S37 1-553): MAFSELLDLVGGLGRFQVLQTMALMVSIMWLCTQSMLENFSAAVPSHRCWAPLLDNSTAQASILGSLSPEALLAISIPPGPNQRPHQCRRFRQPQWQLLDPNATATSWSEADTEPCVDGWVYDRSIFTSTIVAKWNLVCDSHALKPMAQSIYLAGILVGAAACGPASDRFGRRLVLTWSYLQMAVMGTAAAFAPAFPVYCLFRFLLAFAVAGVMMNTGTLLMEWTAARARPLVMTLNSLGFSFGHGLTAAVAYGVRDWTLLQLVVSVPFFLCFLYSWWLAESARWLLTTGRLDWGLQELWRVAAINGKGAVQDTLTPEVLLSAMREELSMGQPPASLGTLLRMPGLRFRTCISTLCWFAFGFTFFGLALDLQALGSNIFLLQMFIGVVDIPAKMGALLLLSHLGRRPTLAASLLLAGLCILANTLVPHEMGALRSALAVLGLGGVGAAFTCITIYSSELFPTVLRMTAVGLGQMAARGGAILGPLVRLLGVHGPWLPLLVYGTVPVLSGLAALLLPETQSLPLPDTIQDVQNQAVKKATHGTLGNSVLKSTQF
Experiment: Uric acid transport inhibitory test using human URAT1-expressing cells
Format: cell-based
Conditions: human URAT1-expressing HEK293 cells, 14C-uric acid 50 μM, uptake 5 min, room temperature; read-out: hURAT1 IC50
Source text: Experimental Example 1 Uric Acid Transport Inhibitory Test Using Human URAT1-Expressing Cells
Human URAT1 full length cDNA was subcloned to expression vector pcDNA3.1 and human URAT1 gene was transfected into human embryonic kidney derived cell line (HEK293 cells) by liposome method using Lipofectamine2000. Simultaneously, HEK293 cells transfected with expression vector pcDNA3.1 alone (hereinafter mock cells) were also produced. HEK293 cells expressing human URAT1 gene or mock cells were selected with geneticin resistance as an index. The functional expression of human URAT1 gene was confirmed by a method similar to the following method, using ^14C-uric acid transport into the cells as an index.
Human URAT1-expressing HEK293 cells or mock cells were cultured in Dulbecco's modified Eagle's MEM medium (high glucose) containing 10% fetal bovine serum, 0.5 mg/mL geneticin sulfate, 100 units/mL penicillin and 100 μg/mL streptomycin under the conditions of 37° C. and 5% CO2 in an incubator. The cells were plated in a 96 well plate (poly-D-Lysine coated) at 1×10^5 cells/well and the following uric acid transport inhibitory test was performed 24 hr later. This test was performed at room temperature.
After the medium was removed by aspiration from each well, the cells were washed once with Hank's Balanced Salt Solution (HBSS) and preincubated with HBSS (100 μL/well) for 5 min. HBSS was aspirated and an assay buffer (wherein NaCl in the above-mentioned HBSS had been substituted with Na-gluconate) containing various concentrations of the Example compound and a radioactive ligand (14C-uric acid; final concentration 50 μM) was added to each well at 50 μL/well and an uptake reaction was carried out for 5 min. After the reaction, the cells were washed twice with ice-cold HBSS (150 μL/well), and Microscinti™ 20 (PerkinElmer) was added at 50 μL/well. The cells were lysed by stirring and the radioactivity of each well was measured by a liquid scintillation counter (TOP COUNT, Packard).
The uric acid transport rate (%) of the Example compound at each concentration was calculated relative to the radioactivity (difference in radioactivity between human URAT1-expressing HEK293 cells and mock cells without addition of Example compound (DMSO addition)) showing URAT1 specific uric acid transport as 100%, and the concentration (IC50) of the Example compound necessary for inhibiting the uric acid transport rate by 50% was determined. In Table 24-Table 27, “+++” means IC50 value of less than 300 nM, “++” means IC50 value of 300 nM to less than 3000 nM, and “+” means IC50 value of not less than 3000 nM.

Row | Compound | IC50 [µM]
1 | Cc1cccc2c1OC(c1ccccc1)C(=O)N2CCC(=O)O (centres unmarked) [Example 47, 3-(8-methyl-3-oxo-2-phenyl-2,3-dihydrobenzo[1,4]oxazin-4-yl)propionic acid] | 0.3 to 3
2 | Cc1cc(C)c2c(c1)N(CCC(=O)O)C(=O)CO2 [Example 82, 3-(6,8-dimethyl-3-oxo-2,3-dihydrobenzo[1,4]oxazin-4-yl)propionic acid] | ≥ 3
3 | CC(C)C1Oc2cc([N+](=O)[O-])ccc2N(CCC(=O)O)C1=O (centres unmarked) [Example 95, 3-(2-isopropyl-7-nitro-3-oxo-2,3-dihydrobenzo[1,4]oxazin-4-yl)propionic acid] | ≥ 3
4 | CCC1Oc2c(C)cc(C)cc2N(CCC(=O)O)C1=O (centres unmarked) [Example 87, 3-(2-ethyl-6,8-dimethyl-3-oxo-2,3-dihydrobenzo[1,4]oxazin-4-yl)propionic acid] | < 0.3
5 | CC(C)C1Oc2c(Br)cccc2N(CCC(=O)O)C1=O (centres unmarked) [Example 51, 3-(8-bromo-2-isopropyl-3-oxo-2,3-dihydrobenzo[1,4]oxazin-4-yl)propionic acid] | 0.3 to 3
6 | CCc1cccc2c1OC(C(C)C)C(=O)N2CCC(=O)O (centres unmarked) [Example 53, 3-(8-ethyl-2-isopropyl-3-oxo-2,3-dihydrobenzo[1,4]oxazin-4-yl)propionic acid] | 0.3 to 3
7 | Cc1cc(C)c2c(c1)N(CCC(=O)O)C(=O)C(c1ccccc1)O2 (centres unmarked) [Example 72, 3-(6,8-dimethyl-3-oxo-2-phenyl-2,3-dihydrobenzo[1,4]oxazin-4-yl)propionic acid] | < 0.3
8 | Cc1ccc2c(c1)N(CCC(=O)O)C(=O)C(c1ccccc1)O2 (centres unmarked) [Example 75, 3-(6-methyl-3-oxo-2-phenyl-2,3-dihydrobenzo[1,4]oxazin-4-yl)propionic acid] | 0.3 to 3
9 | COc1cc(C)c2c(c1)N(CCC(=O)O)C(=O)C(C(C)C)O2 (centres unmarked) [Example 104, 3-(2-isopropyl-6-methoxy-8-methyl-3-oxo-2,3-dihydrobenzo[1,4]oxazin-4-yl)propionic acid] | < 0.3
10 | Cc1cc(Cl)cc2c1OC(C(C)C)C(=O)N2CCC(=O)O (centres unmarked) [Example 81, 3-(6-chloro-2-isopropyl-8-methyl-3-oxo-2,3-dihydrobenzo[1,4]oxazin-4-yl)propionic acid] | < 0.3
11 | CC(C)c1cccc2c1OC(C(C)C)C(=O)N2Cc1ccccc1C(=O)O (centres unmarked) [Example 41, 2-[(2,8-diisopropyl-3-oxo-2,3-dihydrobenzo[1,4]oxazin-4-yl)methyl]benzoic acid] | ≥ 3
12 | Cc1cc(Cl)c2c(c1)N(CCC(=O)O)C(=O)C(C(C)C)O2 (centres unmarked) [Example 98, 3-(8-chloro-2-isopropyl-6-methyl-3-oxo-2,3-dihydrobenzo[1,4]oxazin-4-yl)propionic acid] | < 0.3
13 | CC(C)c1cccc2c1O[C@@H](C(C)C)C(=S)N2CC(=O)O [Example 7, ((S)-2,8-diisopropyl-3-thioxo-2,3-dihydrobenzo[1,4]oxazin-4-yl)acetic acid] | 0.3 to 3
14 | Cc1cc(C)c2c(c1)N(CCC(=O)O)C(=O)C(CC(C)C)O2 (centres unmarked) [Example 90, 3-(2-isobutyl-6,8-dimethyl-3-oxo-2,3-dihydrobenzo[1,4]oxazin-4-yl)propionic acid] | < 0.3
15 | CCc1cccc2c1OC(C(C)C)CN2C(=O)/C=C/C(=O)O (centres unmarked) [Example 60, (E)-4-(8-ethyl-2-isopropyl-2,3-dihydrobenzo[1,4]oxazin-4-yl)-4-oxo-2-butenoic acid] | 0.3 to 3
16 | CC(C)c1cccc2c1OC(c1ccccc1)CN2C(=O)/C=C/C(=O)O (centres unmarked) [Example 45, (E)-4-(8-isopropyl-2-phenyl-2,3-dihydrobenzo[1,4]oxazin-4-yl)-4-oxo-2-butenoic acid] | 0.3 to 3
17 | CC(C)c1cccc2c1OC(c1ccccc1)C(=O)N2CC(=O)O (centres unmarked) [Example 26, (8-isopropyl-3-oxo-2-phenyl-2,3-dihydrobenzo[1,4]oxazin-4-yl)acetic acid] | ≥ 3
18 | CCC1CN(C(=O)/C=C/C(=O)O)c2cccc(C(C)C)c2O1 (centres unmarked) [Example 67, (E)-4-(2-ethyl-8-isopropyl-2,3-dihydrobenzo[1,4]oxazin-4-yl)-4-oxo-2-butenoic acid] | 0.3 to 3
19 | CC(C)C1Oc2ccc(C(C)(C)C)cc2N(CCC(=O)O)C1=O (centres unmarked) [Example 88, 3-(6-tert-butyl-2-isopropyl-3-oxo-2,3-dihydrobenzo[1,4]oxazin-4-yl)propionic acid] | 0.3 to 3
20 | CC(C)c1cccc2c1OC(C(C)C)CN2C(=O)CC(=O)O (centres unmarked) [Example 31, 3-(2,8-diisopropyl-2,3-dihydrobenzo[1,4]oxazin-4-yl)-3-oxopropionic acid] | ≥ 3
21 | O=C(O)/C=C/C(=O)N1CC(c2ccccc2)Oc2ccc(Cl)cc21 (centres unmarked) [Example 71, (E)-4-(6-chloro-2-phenyl-2,3-dihydrobenzo[1,4]oxazin-4-yl)-4-oxo-2-butenoic acid] | ≥ 3
22 | CC(C)c1cccc2c1OC(C(C)C)C(=S)N2CCCC(=O)O (centres unmarked) [Example 20, 4-(2,8-diisopropyl-3-thioxo-2,3-dihydrobenzo[1,4]oxazin-4-yl)butyric acid] | ≥ 3
23 | CC(C)C1CN(C(=O)/C=C/C(=O)O)c2cccc(C3CCCCC3)c2O1 (centres unmarked) [Example 79, (E)-4-(8-cyclohexyl-2-isopropyl-2,3-dihydrobenzo[1,4]oxazin-4-yl)-4-oxo-2-butenoic acid] | ≥ 3
24 | CCCCC1Oc2c(C)cc(C)cc2N(CCC(=O)O)C1=O (centres unmarked) [Example 93, 3-(2-butyl-6,8-dimethyl-3-oxo-2,3-dihydrobenzo[1,4]oxazin-4-yl)propionic acid] | 0.3 to 3

The remaining lines, values ahead:

Row | IC50 [µM] | Compound
25 | ≥ 3 | CC1(C)Oc2ccccc2N(CC(=O)O)C1=S [Example 11, (2,2-dimethyl-3-thioxo-2,3-dihydrobenzo[1,4]oxazin-4-yl)acetic acid]
26 | ≥ 3 | CC(C)C1Oc2ccccc2N(CCC(=O)O)C1=O (centres unmarked) [Example 32, 3-(2-isopropyl-3-oxo-2,3-dihydrobenzo[1,4]oxazin-4-yl)propionic acid]
27 | ≥ 3 | O=C(O)CN1C(=O)COc2ccccc21 [Example 3, (3-oxo-2,3-dihydrobenzo[1,4]oxazin-4-yl)acetic acid]
28 | ≥ 3 | O=C(O)CCCC(=O)N1CCOc2ccccc21 [Example 24, 5-(2,3-dihydrobenzo[1,4]oxazin-4-yl)-5-oxovaleric acid]
29 | ≥ 3 | O=C(O)CCCCC(=O)N1CCOc2ccccc21 [Example 27, 6-(2,3-dihydrobenzo[1,4]oxazin-4-yl)-6-oxohexanoic acid]
30 | ≥ 3 | CC(C)C1Oc2c(ccc3ccccc23)N(CCC(=O)O)C1=O (centres unmarked) [Example 99, 3-(2-isopropyl-3-oxo-2,3-dihydronaphtho[1,2-b][1,4]oxazin-4-yl)propionic acid]
31 | ≥ 3 | CC(C)C1Oc2ccccc2N(CC(=O)O)C1=S (centres unmarked) [Example 13, (2-isopropyl-3-thioxo-2,3-dihydrobenzo[1,4]oxazin-4-yl)acetic acid]
32 | ≥ 3 | O=C(O)/C=C/C(=O)N1CCOc2ccccc21 [Example 28, (E)-4-(2,3-dihydrobenzo[1,4]oxazin-4-yl)-4-oxo-2-butenoic acid]
33 | ≥ 3 | Cc1cc(C)c2c(c1)N(C(=O)/C=C/C(=O)O)CCO2 [Example 85, (E)-4-(6,8-dimethyl-2,3-dihydrobenzo[1,4]oxazin-4-yl)-4-oxo-2-butenoic acid]
34 | ≥ 3 | COC(=O)CN1C(=O)COc2ccccc21 [Example 1, (3-oxo-2,3-dihydrobenzo[1,4]oxazin-4-yl)acetic acid methyl ester]
35 | ≥ 3 | O=C(O)CN1C(=S)COc2ccccc21 [Example 17, (3-thioxo-2,3-dihydrobenzo[1,4]oxazin-4-yl)acetic acid]
